Measured values from paper PMC13050480, “Preclinical Development of GT-14, a Novel Inhibitor of Gαi2 Protein: Comprehensive Evaluation of Physicochemical, Metabolic Characteristics and Tissue Distribution” (The AAPS journal, 2025).
Entries after “also recorded” stand apart in the source; their conditions may differ.

Assays:
[1] = Lipophilicity (logP), octanol-water shake-flask method; assay type: physicochemical; settings: 1-octanol/water, room temperature, triplicate, read-out: experimental logP (octanol-water)
Method: The lipophilicity of GT-14 as indicated by the logP value (octanol–water partition coefficient) was determined by the traditional shake-flask method. Briefly, equal volumes (1 mL) of 1-octanol and water were added to an amber glass bottle and allowed to equilibrate on a shaker for 24 h. Following equilibration, approx. 1 mg of GT-14 (dissolved in Acetonitrile) was added to the two-phase system and allowed to shake continuously at room temperature for 72 h. The two phases were separated using a separating funnel and then centrifuged at 15,000 rpm for 10 min. The concentration of GT-14 in the octanol and water phases was determined by UPLC assay. The experiment was conducted in triplicate.
The logP was calculated by the equation: logP=logOctanolConc./AqueousConc.

[2] = Bi-directional transport study in Caco-2 cell culture model; assay type: in vitro ADME, human; settings: human, donor 10 μM
Method: (§1) Caco-2 cells were cultivated as described previously with slight modification ([12]). Briefly, a cell monolayer was prepared by seeding 400,000 cells per insert (Nunc, surface area 4.2 cm^2, 3 μm pore size). Cells were maintained at 37°C under 90% humidity and 5% CO2. Monolayers were used between 19 and 22 days after seeding. The integrity of each monolayer was checked by measuring the transepithelial electrical resistance (Millicell ERS®) before the experiment. The normal TEER values obtained were above 400 Ω·cm^2. Cell monolayers with TEER values less than 400 Ω·cm^2 were not used. Hank’s balanced salt solution (HBSS) (9.8 g/L) was supplemented with NaHCO3 (0.37 g/L), HEPES (5.96 g/L), and glucose (3.5 g/L) for all experiments, after adjusting the pH to the desired value.
(§2) For transport studies, 2.5 mL of GT-14 testing solution (10 μM) in HBSS (pH 7.4) was added to the apical side (A to B transport) or the basolateral side (B to A transport). Five donor samples (200 μL) and five receiver samples (200 μL) were taken at 0, 1, 2, 3, and 4 h followed by the addition of 200 μL of GT-14 test solution to the donor or 200 μL of blank HBSS buffer to the receiver side. Then, 100 μl of an ACN containing internal standard was added to the samples right after sampling. The TEER was measured at the end of the study, and the cell layer was washed carefully using cold blank HBSS 3 times, then cut and sonicated for 30 min in 1.0 mL of blank HBSS for intracellular GT-14 concentration measurement. All samples were centrifuged at 15,000 rpm for 15 min at 4°C for UPLC analysis.
(§3) The apparent permeability coefficient and efflux ratio were obtained according to the following equations: […]

[3] = tested on: Caco-2 cell monolayers; test: as above; assay type: in vitro ADME, human
Method: as §1, §2, §3

[4] = tested on: rat liver microsomes; test: Phase I biotransformation in rat liver microsomes; assay type: in vitro ADME; settings: NADPH regenerating system, 37°C
Method: (§4) The in vitro phase I reaction was conducted using rat liver microsome, which contain the cytochrome P450 monooxygenases that catalyze oxidation, reduction, or hydrolysis reactions to introduce or expose functional groups on the substrate. NADPH is the cofactor to provide the reducing equivalents required for enzymatic activity, while the cofactor regeneration systems (NADP^+, glucose-6-phosphate, and glucose-6-phosphate dehydrogenase) maintain a sustained supply of NADPH during the reaction to facilitate the metabolite, Potassium phosphate buffer (KPI) mimics physiological conditions. The components were added to microcentrifuge tubes in the following order: The stock solution GT-14 (5 μL, 1 mM) was pre-incubated with rat liver microsomes (12.5 μL, 20 mg/mL, Corning Inc.) at 37°C in KPI buffer(452.5 μL, 50 mM) for 5 min before the reaction was initiated by the addition of an NADPH regenerating system, which consisted of 25μL of solution A1(1.3 mM NADP+, 3.3 mM glucose-6-phosphate, 3.3 mM magnesium chloride), and 5μL of solution B1 (0.5 units/mL glucose-6-phosphate dehydrogenase). Reaction mixtures were incubated at 37 °C in a shaker bath, shaking at 100 rpm. […] The quenched samples were vortexed, centrifuged (14,000 rpm for 15 min) and analyzed by UPLC.

[5] = Phase I biotransformation in rat liver microsomes; assay type: in vitro ADME; settings: rat, 60 min incubation
Method: as §4

[6] = tested on: PC3 cells; settings: cited from earlier work

For `C/C(=N\c1ccc(O)cc1)c1cc2ccccc2n1C` [GT-14, (E)-4-((1-(1-methyl-1H-indol-2-yl)ethylidene)amino)phenol], which logP at 72 h [1] is on record?
The logP at 72 h was 2.38.

What about the efflux ratio at 4 h, 10 μM ([2]; Caco-2, pH 7.4) of the same compound?
Its efflux ratio at 4 h, 10 μM is 1.8.

What about the Papp A→B at 4 h, 10 μM ([2]; Caco-2, HBSS pH 7.4, n=3, read-out: apical to basolateral permeability (Pa-b)) of the same compound?
Its Papp A→B at 4 h, 10 μM is 13 ×10⁻⁶ cm/s.

And the Papp B→A at 4 h, 10 μM ([2]; Caco-2, HBSS pH 7.4, n=3, read-out: basolateral to apical permeability (Pb-a))?
Its Papp B→A at 4 h, 10 μM is 24.2 ×10⁻⁶ cm/s.

What about the BCS class ([3]; based on low aqueous solubility and high permeability) of the same compound?
The BCS class was “BCS class II”.

What about the “predicted absorption in the GI tract in humans” value ([3]; predicted from Caco-2 permeability) of the same compound?
The value was over 75%.

And the “Phase I metabolism (UPLC peaks)” value [4]?
Its value is “undergoes Phase I metabolism; also recorded: underwent Phase I metabolism; also recorded: at least four additional peaks appeared”.

And the remaining at 1 h, 10 μM [5]?
The remaining at 1 h, 10 μM was over 90%.

And the “migratory capability of PC3 cells” value [6]?
The value was “significant reduction”.

And the “stimulatory effects of docetaxel (cell migration) in PC3 cells” value ([6]; simultaneous treatment)?
The value was “blocked”.
